Reference: US20040132803A1, “Agent for the treatment of overactive bladder” (priority 2003, published 2004)

Tests used:
[1] = system: rats with hypertrophic bladder; experiment: Inhibition of detrusor instability, cystometry in rats with partial urethra obstruction (hypertrophic bladder); format: in vivo, rat; conditions: for micturition contraction, relative to before administration = 100 / pre-micturition contraction, relative to before administration = 100: rats with partial urethra obstruction
Excerpt: Partial urethra obstruction was induced in rats.

[2] = system: slowly-inactivating A-type K^+ currents; experiment: Slowly-inactivating A-type K^+ currents in Fast Blue-labeled capsaicin-sensitive bladder afferent neurons; format: cell-based, rat; conditions: 1.0 × 10^−6 mol/L
Experimental: Experiments were performed on adult female Sprague Dawley rats. First and second series of the experiments were performed, respectively, in unidentified DRG neurons and a specific population of DRG neurons innervating the urinary bladder. The population of DRG neurons that innervate the urinary bladder were labeled by retrograde axonal transport of the fluorescent dye, Fast Blue (4% w/v) (Polyloy, Gross Umstadt, Germany), injected into the wall of the bladder in halothane-anesthetized animals 7 days before the dissociation. The dye was injected with a 28 gauge needle at three to six sites on the dorsal surface of the organ (5-6 μL per site, total volume of 20-30 μL). Each injection site was washed with saline to minimize contamination of adjacent organs with the dye.
Freshly dissociated neurons from DRG were prepared from halothane-anesthetized animals. […]
Dye-labeled primary afferent neurons that innervate the urinary bladder were identified using an inverted phase-contrast microscope (Nikon, Tokyo, Japan) with fluorescent attachments (UV-1A filter; excitation wavelength, 365 nm). […] All recordings were made with an Axopatch-1D patch-clamp amplifier (Axon Instruments, Foster City, Calif.), and data were acquired and analyzed by PCLAMP software (Axon Instruments).
In voltage-clamp recordings, outward K^+ currents and inward Na^+ currents were measured. […]

spinal cord-injured rats = experiment: Inhibition of detrusor hyperreflexia, cystometry in spinal cord-injured rats; format: in vivo, rat
Excerpt: Spinal cord injury was induced in rats.

[3] = 0.001 mg/kg p.o., after 3 hours
[4] = 0.001 mg/kg p.o., after 5 hours

## C[C@](O)(C(=O)Nc1cccc2c1C(=O)c1sccc1CS2(=O)=O)C(F)(F)F [Compound 1, (S)-(+)-N-(5,5-dioxido-10-oxo-4,10-dihydrothieno[3,2-c][l]benzothiepin-9-yl)-3,3,3-trifluoro-2-hydroxy-2-methylpropanamide]
[1]; 0.001 mg/kg p.o., after 1 hour
  micturition contraction, relative to before administration = 100: 99.3 ± 2.3%
  pre-micturition contraction, relative to before administration = 100: 105.9 ± 7.8%
[1]; [3]
  micturition contraction, relative to before administration = 100: 101.5 ± 3.3%
  pre-micturition contraction, relative to before administration = 100: 100.3 ± 10.0%
[1]; [4]
  micturition contraction, relative to before administration = 100: 98.7 ± 5.2%
  pre-micturition contraction, relative to before administration = 100: 104.2 ± 10.2%
[1]; 0.01 mg/kg p.o., after 1 hour
  micturition contraction, relative to before administration = 100: 99.6 ± 1.2%
  pre-micturition contraction, relative to before administration = 100: 59.5 ± 4.1 %
[1]; 0.01 mg/kg p.o., after 3 hours
  micturition contraction, relative to before administration = 100: 92.6 ± 3.2%
  pre-micturition contraction, relative to before administration = 100: 69.5 ± 4.4 %
[1]; 0.01 mg/kg p.o., after 5 hours
  micturition contraction, relative to before administration = 100: 90.1 ± 4.3%
  pre-micturition contraction, relative to before administration = 100: 67.8 ± 5.5 %
[1]; 0.1 mg/kg p.o., after 1 hour
  micturition contraction, relative to before administration = 100: 106.2 ± 9.2%
  pre-micturition contraction, relative to before administration = 100: 55.8 ± 8.2 %
[1]; 0.1 mg/kg p.o., after 3 hours
  micturition contraction, relative to before administration = 100: 105.2 ± 9.6%
  pre-micturition contraction, relative to before administration = 100: 66.2 ± 4.7 %
[1]; 0.1 mg/kg p.o., after 5 hours
  micturition contraction, relative to before administration = 100: 100.1 ± 8.6%
  pre-micturition contraction, relative to before administration = 100: 69.2 ± 7.4 %
[1]; rats with hypertrophic bladder
  effect on micturition contraction: had no influence
  effect on pre-micturition contraction (detrusor instability): inhibited
[2]
  A-type IK (HP: −120 mV)-(HP: −40 mV), normalized to control: 1.26 ± 0.03
Spinal cord-injured rats
  effect on micturition (physiological) contraction: had no influence
  effect on pre-micturition contraction (detrusor overactivity): inhibited
Spinal cord-injured rats; 0.001 mg/kg p.o., after 1 hour
  micturition contraction, relative to before administration = 100: 106.5 ± 11.3%
  pre-micturition contraction, relative to before administration = 100: 83.5 ± 6.8%
Spinal cord-injured rats; [3]
  micturition contraction, relative to before administration = 100: 101.7 ± 9.5%
  pre-micturition contraction, relative to before administration = 100: 95.4 ± 12.0%
Spinal cord-injured rats; [4]
  micturition contraction, relative to before administration = 100: 103.1 ± 6.5%
  pre-micturition contraction, relative to before administration = 100: 105.5 ± 20.8%
Spinal cord-injured rats; 0.01 mg/kg p.o., after 1 hour
  micturition contraction, relative to before administration = 100: 114.4 ± 9.5%
  pre-micturition contraction, relative to before administration = 100: 59.6 ± 8.1 %
Spinal cord-injured rats; 0.01 mg/kg p.o., after 3 hours
  micturition contraction, relative to before administration = 100: 117.6 ± 13.9%
  pre-micturition contraction, relative to before administration = 100: 51.2 ± 6.7 %
Spinal cord-injured rats; 0.01 mg/kg p.o., after 5 hours
  micturition contraction, relative to before administration = 100: 117.6 ± 12.7%
  pre-micturition contraction, relative to before administration = 100: 42.2 ± 7.2 %
Spinal cord-injured rats; 0.1 mg/kg p.o., after 1 hour
  micturition contraction, relative to before administration = 100: 109.3 ± 6.3%
  pre-micturition contraction, relative to before administration = 100: 52.3 ± 9.1 %
Spinal cord-injured rats; 0.1 mg/kg p.o., after 3 hours
  micturition contraction, relative to before administration = 100: 110.2 ± 5.4%
  pre-micturition contraction, relative to before administration = 100: 33.3 ± 6.3 %
Spinal cord-injured rats; 0.1 mg/kg p.o., after 5 hours
  micturition contraction, relative to before administration = 100: 112.4 ± 7.0%
  pre-micturition contraction, relative to before administration = 100: 28.5 ± 6.2 %
